One molecule from patent publication US20070074300A1, “Sialidase inhibitors for the treatment of cardiovascular disease” (priority 2005, published 2007) can be followed below.

Test [1] has as its system differentiated human THP-1 macrophages. The test can be described thus: IL-6 production by differentiated THP-1 macrophages in culture (ELISA). Type of test: cell-based. The note with it: differentiated THP-1 macrophages incubated 3 days with varying concentrations; IL-6 in culture supernatant by ELISA; FIG. 7. As to the method: The effects of a sialidase inhibitor, N-acetyl-2,3-dehydro-2-deoxyneuraminic acid (ADDN), on the production of the inflammatory cytokine interleukin-6 (IL-6) by differentiated human THP-1 macrophages in culture was measured.
FIG. 7 illustrates that the inhibition of sialidase activity suppresses production of the pro-atherogenic cytokine IL-6 in differentiated THP-1 macrophages. Differentiated THP-1 macrophages were incubated for 3 days with the varying concentrations of the sialidase inhibitor ADDN. Levels of the cytokine IL-6 in samples of the cell culture supernatant were quantified by ELISA. Data are presented as the mean±standard deviation of triplicate experimental groups. (* denotes significant difference, P<0.001).
On the technique in general: An ELISA detects its analyte on a solid surface through an enzyme-linked reagent.

The subject of test [2] is ApoE KO mice. The test can be described thus: Atherosclerosis (aortic sinus lesion area and volume) in apoE KO mice treated with sialidase inhibitor. Type of test: in vivo, mouse. The note with it: male apoE KO mice aged 7 months, mini-osmotic pump 1.5 micro-g/day for 6 weeks, vs saline. As to the method:
FIG. 9 illustrate a morphometric evaluation of atherosclerotic lesion area (A) and volume (B) in the aortic sinus of male ApoE−/− mice treated for 6 weeks with the sialic acid inhibitor ADDN (N-Acetyl-2,3-dehydro-2-deoxyneuraminic acid). Mice aged 7 months were treated for 6 weeks with either saline or the sialic acid inhibitor ADDN. (n=8 in each case). A third group of mice was euthanized at the beginning of the experiment so that the level of atherosclerosis at the time that treatment was initiated could be measured (Base, n=9). Atherosclerotic lesion cross sectional areas in the aortic root (A) and lesion volumes (B) were measured. Values are the averages ±standard error of the mean. Lesion progression was reduced in ADDN-treated mice compared to saline controls. […]
For diet-induced atherosclerosis, mice were fed (beginning four weeks after transplantation) with a high fat, Western-type diet (Covey et al 2003) obtained from Dyets, Inc. (Bethlehem Pa.). […] Atherosclerotic plaque cross sectional area was measured by morphometry using Axiovision software (Carl Zeiss Canada, Inc). A total of eight sections lying at 0.1 mm intervals along the aortic sinus were analyzed for each mouse. […] The volume of atherosclerotic plaque was therefore calculated as the sum of the volumes determined for each 0.1 mm portion of the aortic sinus. […]

For test [3], the system named is ApoE KO mice. The test can be described thus: Serum glucose and serum/lipoprotein cholesterol in apoE KO mice treated with sialidase inhibitor. It counts as in vivo, mouse. The note with it: vs saline control, FIG. 8. As to the method: Control mice received daily injections of saline. Data reveal significant reductions in serum glucose levels, and total and LDL cholesterol. P<0.01.
Plasma was prepared from heparinized blood collected by cardiac puncture (Covey et al 2003). Serum was collected from blood using serum separators (Becton Dickenson). Serum was submitted to the Clinical Diagnostic Laboratory at the McMaster University Medical Centre for analyses of standard metabolic parameters including total cholesterol, LDL cholesterol and glucose. Lipoproteins from plasma were separated by size by fast protein liquid chromatography (FPLC) using an AKTA system (Amersham Biosciences, Inc.) with a Superose 6 HR 10/30 column, as described previously (Covey et al 2003). The total cholesterol content in each fraction was assayed using an enzymatic assay kit from Thermo DMA. Lipoproteins (VLDL, LDL and HDL) from human plasma were run as controls to calibrate the column.
The inhibitor, N-Acetyl-2,3-dehydro-2-deoxyneuraminic acid (ADDN), was obtained from Sigma Chemical Company (St. Louis, Mo.). ApoE KO mice were ˜6 weeks of age at the beginning of the study. The mice were randomized into 2 groups of 6. The control group received daily i.p injections of 0.9% saline (0.1 ml/day for […]). The experimental group received daily i.p. injections of 0.9% saline (0.1 ml per day) containing either 0.1 or 0.4 ug ADDN for 7 days. Serum was collected on day 7 and serum glucose, total cholesterol and LDL levels were measured.

Where [4] appears, read: daily i.p. 0.1 or 0.4 ug for 7 days.

On to `CC(=O)N[C@H]1[C@H]([C@H](O)[C@H](O)CO)OC(C(=O)O)=C[C@@H]1O` [ADDN, N-Acetyl-2,3-dehydro-2-deoxyneuraminic acid], for which the “production of the inflammatory cytokine IL-6” value in test [1] is reported as “reduced production of IL-6”. Also, the “growth of atherosclerotic plaque cross sectional area from baseline” value in the test with ApoE KO mice [2] (aortic root, FIG. 9A) was “substantially inhibited”. In the test on ApoE KO mice [2] (aortic sinus, FIG. 9B), the “growth of atherosclerotic plaque volume from baseline” value is on record as “substantially inhibited”. For the same molecule, in the test on ApoE KO mice [3] (setting [4]), the LDL cholesterol entry is recorded as “significantly less”, the serum glucose result is reported as “significantly decreased” and the serum total cholesterol result was “significantly less”. The HDL cholesterol result with ApoE KO mice [3] (daily i.p. injections) is “significantly less”.
